Results on 14 compounds are retold here after patent US20240228987A1, “HEXOKINASE-DERIVED PEPTIDES AND THERAPEUTICAL USES THEREOF” (INSERM (INSTITUT NATIONAL DE LA SANTÉ ET DE LA RECHERCHE …, priority 2021, published 2024).

Usually IC50 stands for the point on the concentration scale where inhibition reaches its midpoint. High values mean lower potency, low ones higher potency. The amount remaining is the share of the starting amount still present when the sample was taken.

Where a SMILES comes first, the peptide text is derived from it. Where no end group is shown, it is not given here. [ ]: non-standard residue; d: D form. The star is where a group is joined. X1 = CC(C)(C(=O)*)n1cc(-c2cccc(C(F)(F)F)c2)nn1; Nle = CCCC[C@H](N)C(=O)O; Aib = CC(C)(N)C(=O)O

One data set addresses T1, VDAC (Homo sapiens, UniProt P21796).
T1 construct: HEK-293 cells, expressing VDAC and HK; endogenous in cells; host or cells: HEK-293 (ATCC), transfected only with the Ca2+ probes mitoGCaMP2 / GCaMP2
As to the kind of experiment: in-cellulo screening assay: HEK-293 cells transfected with mitoGCaMP2, MJ-induced mitochondrial Ca2+ release through VDAC. The format is cell-based. The settings on record: for activity / affinity for VDAC on the screening assay (mitoGCaMP2 fluorescence): MJ 6 mM.

Data set [1] is described as follows: in-vitro metabolic stability in rat serum. The format is in vitro ADME. The note with it: 25% (v/v) rat serum. The method, then:
FIG. 10: Study of the stability of NHKI derived sequence (3c′, 7a′, 7d′, 7f′-g′) towards rat serum (N=3 independent experiments). All peptides were tested at a concentration of 66.6 μmol/L in presence of 25% (v/v) of rat serum and water after incubation at 37° C. for 24 h. Errors bars show the standard deviation.
For each peptide, a stock solution in DMSO was prepared at a 6.66 mmol/L concentration. 70 μL of the solution were taken out and added to 630 μL of MilliQ water to make an aqueous peptide solution (0.666 mmol/L). The reaction consisted in 325 μL of MilliQ water and 125 μL of non-diluted rat serum pre-incubated at 37° C. for about 10-15 min before addition of 50 μL the peptide solution at 0.666 mmol/L. The mixture was incubated at 37° C. with shaking at 1000 rpm. Aliquots (25 μL) were taken at different time points (0 min, 5 min, 15 min, 30 min, 1h, 2h, 3h, 5h, 7h, 24h, 48h) and enzymatic reaction was quenched with 225p L of MeOH to precipitate all serum proteins. The Eppendorf tube was directly centrifuged (14000 rpm) for 20 min at 4° C. to remove precipitated proteins by pelleting.

For data set [2], the target named is Elastase (from porcine pancreas, EC 3.4.21.36) (Sus scrofa, UniProt P00772). The note with it: Tris·HCl buffer pH 8, 37° C., peptides without Tat.
Experimental: A stock solution of Elastase at 1 mg/mL was prepared in Tris·HCl buffer (50 mM, pH 8, containing 0.5 mM CaCl2,). The stock solution was diluted at 0.94 mg/mL with 658 μL of stock solution in 42 μL of Tris·HCl buffer. All peptides were dissolved in DMSO to prepare a 6.66 mmol/L stock solution. A more diluted peptide solution (0.666 mmol/L) was prepared with 70 μL of stock solution in 630 μL of Tris·HCl buffer pH 8. In a 1.5 mL Eppendorf, 890 μL of Tris·HCl pH 8 was introduced followed by 100 μL of peptide solution (0.666 mmol/L) and incubated for 15 min at 37° C. prior to degradation. Then, 10 μL of Elastase solution (0.94 mg/mL) was added. The reaction mixture was incubated up to 4h at 37° C. with shaking at 1000 rpm. Aliquots (50 μL) were taken at different time points, quenched with 450 μL of MeOH, and centrifuged for 20 min (14000 rpm) at 4° C. The supernatant was transferred into an injection vial and analyzed by LC-MS with an eluting program of 0.1% formic acid in water and 0.1% formic acid in acetonitrile (see analytical data section). The relative concentrations of the remaining peptides and the cleavage products were calculated by integration of the corresponding peak in the HPLC chromatogram/MS trace. A control peptide solution was prepared without the enzyme. […] All proteolytic degradation experiments were carried out in triplicate.
The test system of a further data set is sciatic nerve explants. In words: sciatic nerve explant culture and CARS imaging (demyelination). It is filed as cell-based, mouse. The note with it: 3 μM. An excerpt: FIG. 11: Effects of NHKI-derived peptides 3c, 5x, 7d and 7g on sciatic nerve explants cultured in medium supplemented with serum. (A) Representative CARS images showing myelin (green) of an intact sciatic nerve collected and immediately fixed in 4% PFA and a sciatic nerve explant cultured in medium supplemented with FBS referred as negative control. (B) Representative CARS images showing myelin (green) of sciatic nerve explants cultured in medium supplemented with FBS containing NHKI-derived peptides at 3 μM for 24 h. All nerves are represented in longitudinal sections. Healthy myelin sheath (white arrows), Node of Ranvier (white stars) and myelin ovoids (orange arrows) are illustrated. Scale bar: 20 μm. (C) Graph showing the percentage of damaged fibers in intact nerves (white plot), negative controls (light grey plot), 3c and its analog 7d (blue plots) 5x and its analog 7g (red plots). (N=3 independent experiments). Results are expressed as means±SD. Statistical analysis using one-way ANOVA followed by Dunnett's multiple comparison tests. *p<0.05, **p<0.01. ns, non-significant.
Twelve-week-old C57BL6/J mice were euthanized using Pentobarbital (54.7 mg/ml, 100 mg/kg, Centravet, France). First, sciatic nerves were collected, washed in PBS and their epineurium was removed. Next, 5 mm long nerves were put in 24-well microplates (NUNC, Thermo Fisher Scientific, France) in 500 μl of DMEM supplemented with 1% PS and with or without 10% FBS containing the compounds at 3 μM containing 0.1% DMSO, and further incubated in a humidified chamber at 37° C. and 5% CO2. Negative controls consisted in sciatic nerve explant cultures without compounds (only DMEM supplemented with 1% PS, with or without 10% FBS and 0.1% DMSO). Intact sciatic nerves collected and immediately fixed in 4% PFA served as a control of healthy myelin sheath for CARS imaging. After 24 h in culture, sciatic nerve explants were washed three times with PBS and fixed for 1 h in 4% PFA aqueous solution (Electron Microscopy Sciences, Thermo Fisher Scientific, France) at room temperature. All CARS images were acquired with a two-photon microscope LSM 7 MP coupled to an OPO (Zeiss, France) complemented by a delay line. A ×20 water immersion objective (W Plan Apochromat DIC VIS-IR, Zeiss, France) was used for image acquisition. Each acquisition was conducted in three independent experiments. For each experiment, three ROIs per conditions were used to quantify the percentage of damaged fibers per field using Zen software (Zen 2.3 lite, Zeiss, France). Results are expressed as means±SD.
Next, we tested NHKI-derived compound activity on sciatic nerve explant cultures in which Schwann cells demyelinate through a mechanism involving mitochondrial Ca2+ release through VDAC1.44,45,9 Intact myelin was imaged and quantified in sciatic nerve explants using Coherent Anti-Stokes Raman Scattering (CARS) nonlinear microscopy. […] Demyelination was quantified by measuring the percentage of damaged fibers, i.e. displaying ovoid formation, over the total number of fibers imaged.

The subject of the next data set is Schwann cells. The settings on record: cited from earlier work.
Setting [3] is: 24 h, medium supplemented with serum.
The mark [4] stands for this setting: compounds at 3 μM, compared with 3c, 4d or 5x.

Elastase (from porcine pancreas, EC 3.4.21.36), sequence (P00772 27-266): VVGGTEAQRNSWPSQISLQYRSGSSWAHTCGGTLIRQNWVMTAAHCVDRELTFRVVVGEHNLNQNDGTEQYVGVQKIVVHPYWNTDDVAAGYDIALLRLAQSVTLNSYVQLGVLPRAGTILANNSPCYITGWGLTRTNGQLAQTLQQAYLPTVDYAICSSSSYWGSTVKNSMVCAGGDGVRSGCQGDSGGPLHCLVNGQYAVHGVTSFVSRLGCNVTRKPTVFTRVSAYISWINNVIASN
T1 sequence (P21796 2-283): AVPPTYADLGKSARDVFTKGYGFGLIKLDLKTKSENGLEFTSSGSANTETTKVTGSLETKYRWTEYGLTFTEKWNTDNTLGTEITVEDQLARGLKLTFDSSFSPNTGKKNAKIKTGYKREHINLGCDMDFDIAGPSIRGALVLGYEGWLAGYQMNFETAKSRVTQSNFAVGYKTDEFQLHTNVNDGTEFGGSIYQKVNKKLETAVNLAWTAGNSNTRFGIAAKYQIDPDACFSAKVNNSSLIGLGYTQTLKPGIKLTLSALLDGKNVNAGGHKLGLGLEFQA
Experimental for VDAC: The activity of the designed compounds was assessed on HEK-293 cells transfected with mitoGCaMP2. 40,000 cells per well were seeded in 96-well-microplates coated with Poly-D-Lysine (reference 655946, Greiner Bio-One, France) in 200 μl of DMEM supplemented with 10% FBS and 1% PS. 24 h after seeding, cells were transfected with 50 ng of mitoGCaMP2 plasmid per well using jet-PRIME reagent (Polyplus-transfection S.A, France) according to the manufacturer's recommendations. 48 h after transfection, a first measure of fluorescence was performed using the microplate reader CLARIOstar® (BMG Labtech, France). This measurement represented the basal level of Ca2+ into the mitochondria upon transfection. After a wash with 100 μl of PBS, cells were incubated with a mixture of pre-heated (37° C.) MJ at a final concentration of 6 mM and compounds at the indicated final concentrations in PBS containing 0.1% DMSO and 5% EtOH. After 35 min in a cell incubator, a second measure of fluorescence was performed using the microplate reader CLARIOstar®. This measure represented the level of mitochondrial Ca2+ according to the peptide activity. Compounds were tested in triplicates per microplates and in three or five independent experiments for each peptide. For dose effect curves, compounds were tested in triplicates per microplates and in three independent experiments. Results are expressed as the ratio between the second and first measures and normalized to the conditions without compounds containing only PBS with 0.1% DMSO and 5% EtOH. Results are expressed as the means±SD in histogram plots and dose response curves using GraphPad Prism software (version 8.0.1).
The biological screening of the peptide is based on the ability of methyl jasmonate (MJ) to binds and detaches HK-1 from mitochondrial VDAC in a time and dose dependent manner.^16,20 For this purpose, we developed an in-cellulo screening assay in which HEK-293 cells, expressing VDAC and HK,25 were transfected with GCaMP2, a cytoplasmic Ca2+-sensing probe, or with mitoGCaMP2, the same probe addressed to mitochondrial matrix. […] MJ that removes HK from VDAC was used to induce a Ca2+ release outside mitochondria measured through a drop in mitoGCaMP2 fluorescence and an increase in GCaMP2 fluorescence in cells.

`CCCC[C@H](NC(=O)[C@H](CCC(N)=O)NC(=O)[C@@H]1CCCN1C(=O)[C@@H]1CCCN1C(=O)[C@H](CCCNC(=N)N)NC(=O)[C@H](CCCNC(=N)N)NC(=O)[C@H](CCCNC(=N)N)NC(=O)[C@H](CCC(N)=O)NC(=O)[C@H](CCCNC(=N)N)NC(=O)[C@H](CCCNC(=N)N)NC(=O)[C@H](CCCCN)NC(=O)[C@H](CCCCN)NC(=O)[C@H](CCCNC(=N)N)NC(=O)CNC(C)=O)C(=O)N[C@H](C(=O)N[C@@H](C)C(=O)N[C@@H](C)C(=O)N[C@@H](CCC(N)=O)C(=O)N[C@@H](CC(C)C)C(=O)N[C@@H](CC(C)C)C(=O)N[C@@H](C)C(=O)N[C@@H](Cc1ccc(O)cc1)C(=O)N[C@@H](Cc1ccc(O)cc1)C(=O)N[C@@H](Cc1ccccc1)C(=O)N[C@H](C(=O)N[C@@H](CCC(=O)O)C(=O)N[C@@H](CC(C)C)C(=O)N[C@@H](CCCCN)C(N)=O)[C@@H](C)O)[C@@H](C)CC` [2a] displayed a half-inhibitory concentration (IC50) against VDAC of 13.9 ± 3.1 µM.

In the case of `CC(=O)N[C@@H](C)C(=O)N[C@@H](CCC(N)=O)C(=O)N[C@@H](CC(C)C)C(=O)N[C@@H](CC(C)C)C(=O)NC(C)(C)C(=O)N[C@@H](Cc1ccc(O)cc1)C(=O)N[C@@H](Cc1ccc(O)cc1)C(=O)N[C@@H](Cc1ccccc1)C(=O)N[C@H](C(=O)N[C@@H](CCC(=O)O)C(=O)N[C@@H](CC(C)C)C(=O)N[C@@H](CCCCN)C(N)=O)[C@@H](C)O` [7a′] (Ac-AQLL[Aib]YYFTELK-NH2; N-terminus and C-terminus assumed), the fraction remaining at 24 h, 66.6 µmol/L in data set [1] (37° C., after 24 h, read-out: remaining compound in rat serum) is about 65%. For the same compound, in data set [2], the stability towards elastase entry is “improve their stability towards elastase”.

On to `CC(=O)N[C@@H](C)C(=O)NC(C)(C)C(=O)N[C@@H](C)C(=O)NC(C)(C)C(=O)N[C@@H](C)C(=O)N[C@@H](CCC(N)=O)C(=O)N[C@@H](CC(C)C)C(=O)N[C@@H](CC(C)C)C(=O)NC(C)(C)C(=O)N[C@@H](Cc1ccc(O)cc1)C(=O)N[C@@H](Cc1ccc(O)cc1)C(=O)N[C@@H](Cc1ccccc1)C(=O)N[C@H](C(=O)N[C@@H](CCC(=O)O)C(=O)N[C@@H](CC(C)C)C(=O)N[C@@H](CCCCN)C(N)=O)[C@@H](C)O` [7d′] (Ac-A[Aib]A[Aib]AQLL[Aib]YYFTELK-NH2; N-terminus and C-terminus assumed), for which, in data set [2], the stability towards elastase entry is recorded as “improve their stability towards elastase”.

On to `C[C@H](NC(=O)[C@H](Cc1c[nH]c2ccccc12)NC(=O)[C@H](Cc1c[nH]c2ccccc12)NC(=O)[C@H](CCC(N)=O)NC(=O)[C@H](C)NC(=O)C(C)(C)n1cc(-c2cccc(C(F)(F)F)c2)nn1)C(=O)N[C@@H](Cc1ccc(O)cc1)C(=O)N[C@@H](Cc1ccc(O)cc1)C(=O)N[C@@H](Cc1ccccc1)C(=O)N[C@H](C(=O)N[C@@H](CCC(=O)O)C(=O)N[C@@H](Cc1c[nH]c2ccccc12)C(=O)N[C@@H](CCCCN)C(=O)NCC(=O)N[C@@H](CCCNC(=N)N)C(=O)N[C@@H](CCCCN)C(=O)N[C@@H](CCCCN)C(=O)N[C@@H](CCCNC(=N)N)C(=O)N[C@@H](CCCNC(=N)N)C(=O)N[C@@H](CCC(N)=O)C(=O)N[C@@H](CCCNC(=N)N)C(=O)N[C@@H](CCCNC(=N)N)C(=O)N[C@@H](CCCNC(=N)N)C(=O)N1CCC[C@H]1C(=O)N1CCC[C@H]1C(=O)N[C@@H](CCC(N)=O)C(N)=O)[C@@H](C)O` [7f] (X1-AQWWAYYFTEWKGRKKRRQRRRPPQ-NH2), for which the stability towards elastase result in data set [2] was “most stable compound”. For the same compound, the midpoint of inhibition at VDAC, the IC50, lay at 2.6 ± 0.6 µM.

Consider `C[C@H](NC(=O)C(C)(C)n1cc(-c2cccc(C(F)(F)F)c2)nn1)C(=O)N[C@@H](CCC(N)=O)C(=O)N[C@@H](Cc1c[nH]c2ccccc12)C(=O)N[C@@H](Cc1c[nH]c2ccccc12)C(=O)NC(C)(C)C(=O)N[C@@H](Cc1ccc(O)cc1)C(=O)N[C@@H](Cc1ccc(O)cc1)C(=O)N[C@@H](Cc1ccccc1)C(=O)N[C@H](C(=O)N[C@@H](CCC(=O)O)C(=O)N[C@@H](Cc1c[nH]c2ccccc12)C(=O)N[C@@H](CCCCN)C(=O)NCC(=O)N[C@@H](CCCNC(=N)N)C(=O)N[C@@H](CCCCN)C(=O)N[C@@H](CCCCN)C(=O)N[C@@H](CCCNC(=N)N)C(=O)N[C@@H](CCCNC(=N)N)C(=O)N[C@@H](CCC(N)=O)C(=O)N[C@@H](CCCNC(=N)N)C(=O)N[C@@H](CCCNC(=N)N)C(=O)N[C@@H](CCCNC(=N)N)C(=O)N1CCC[C@H]1C(=O)N1CCC[C@H]1C(=O)N[C@@H](CCC(N)=O)C(N)=O)[C@@H](C)O` [7g] (X1-AQWW[Aib]YYFTEWKGRKKRRQRRRPPQ-NH2; N-terminus assumed), for which, in the data set on sciatic nerve explants (setting [3]), the nerve fibers damage entry is “significantly decreased nerve fibers damage” and the “preservation of the myelin sheath” value is listed as “significantly preserve the myelin sheath at a similar level to an intact nerve”. In the data set with sciatic nerve explants (24h, serum-free medium), the myelin sheath pattern entry is listed as “same myelin sheath pattern as an intact nerve” and the “percentage of damaged fibers” value is given as “significantly reduced the level of damaged fibers”. Besides, the “activity / affinity for VDAC on the screening assay (mitoGCaMP2 fluorescence)” value (from here on “activity / affinity for VDAC”) at VDAC (setting [4]) is reported as “significant higher activity”. Also, the “activity / affinity for VDAC” value at VDAC (compounds at 10 μM) was “significantly more active than compounds 3c and 5x”.

In the case of `CC(C)CCC[C@@H](C)[C@H]1CC[C@H]2[C@@H]3CCC4=CC(=NO)CC[C@]4(C)[C@H]3CC[C@]12C` [olesoxime], in the data set on Schwann cells, the demyelination entry is listed as “block demyelination” and the mitochondrial calcium release entry is listed as “prevent mitochondrial calcium release”.

On to “AQLWAYYYTEWK [5t, tested peptide also contains Tat]”, for which, in the data set with VDAC (setting [4]), the “activity / affinity for VDAC” value was “beneficial effect”.

On to “AQWLAYYLTELK [5l, tested peptide also contains Tat]”, for which the “activity / affinity for VDAC” value with VDAC (setting [4]) is given as “beneficial effect”.

On to “AQWLAYYYTELK [5m, tested peptide also contains Tat]”, for which the “activity / affinity for VDAC” value in the data set with VDAC (setting [4]) is listed as “equally accommodated”.

For “AQWWAYYFTEWK [5x, tested peptide also contains Tat]”, the “percentage of damaged fibers” value in the data set with sciatic nerve explants (24h, serum-free medium) is “significantly reduced the level of damaged fibers”. The “activity / affinity for VDAC” value with VDAC (setting [4]) is “more significant”.

Regarding Ac-AQLLAYYFTELKGRKKRRQRRRPPQ-NH2 [3c], the “percentage of damaged fibers” value with sciatic nerve explants (24h, serum-free medium) is reported as “same percentage of damaged fibers as the negative control”. Moreover, the fraction remaining at 5 min, 66.6 µmol/L in data set [1] (25% rat serum, after 5 min, preliminary experiment, read-out: remaining peptide in rat serum) came to 10%.

Turning to [Nle]IAAQLWAYYY [6o], the “activity / affinity for VDAC” value at VDAC (setting [4]) was “equally accommodated”.

Turning to [Nle]IAAQWLAYYY [6m], on VDAC (setting [4]), the “activity / affinity for VDAC” value was “equally accommodated”.

For [Nle]IAAQWWAYYL [6q], the “activity / affinity for VDAC” value at VDAC (setting [4]) is given as “more significant”.
